Measurements reported in patent publication US20160297833A1, “THIENOPYRIMIDINES AS MKNK1 AND MKNK2 INHIBITORS” (BAYER PHARMA AKTIENGESELLSCHAFT, priority 2013, published 2016).

The compounds below were run against T1, human full-length MKNK1 (Homo sapiens, UniProt Q9BUB5, T385D) (assay: MKNK1 kinase high ATP assay (TR-FRET)). Details: Table 1; MKNK1 kinase high ATP assay, 2 mM ATP; read-out: MKNK1 IC50.
T1 construct: GST (N); purchased Carna Biosciences 02-145; host or cells: insect cells (baculovirus expression system)
Format: biochemical
Procedure, shortened: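 Full-length human MKNK1 (T385D) preincubated 15 min at 22 °C with compound in HEPES pH 7.5/MgCl2/DTT buffer; reaction with 2 mM ATP (final) and 0.06 μM biotinylated peptide (final), 30 min at 22 °C.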

T1 sequence (Q9BUB5 1-424 isoform Q9BUB5-2 T344D): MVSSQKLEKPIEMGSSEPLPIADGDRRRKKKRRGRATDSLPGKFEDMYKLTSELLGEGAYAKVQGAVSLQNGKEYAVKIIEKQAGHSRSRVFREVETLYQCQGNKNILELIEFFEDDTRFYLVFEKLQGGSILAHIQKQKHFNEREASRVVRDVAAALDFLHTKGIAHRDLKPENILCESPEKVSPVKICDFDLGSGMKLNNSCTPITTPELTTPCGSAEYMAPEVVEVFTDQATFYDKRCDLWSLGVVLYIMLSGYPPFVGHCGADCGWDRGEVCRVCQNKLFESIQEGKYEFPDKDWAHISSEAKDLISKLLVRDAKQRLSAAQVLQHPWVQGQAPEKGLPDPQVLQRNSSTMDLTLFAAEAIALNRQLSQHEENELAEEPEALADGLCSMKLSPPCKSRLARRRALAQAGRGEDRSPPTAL

| SMILES | IC50 [nM] |
| --- | --- |
| C=CCN(C)c1cc2[nH]ncc2cc1Nc1ncnc2sc3c(c12)CC[C@H](C(=O)N(C)C)C3 [Example 128, (7S)—N,N-Dimethyl-4-({6-[methyl(prop-2-en-1-yl)amino]-1H-indazol-5-yl}amino)-5,6,7,8-tetrahydro[1]benzothieno[2,3-d]pyrimidine-7-carboxamide] | 1 |
| C[C@H]1CN(C(=O)[C@H]2CCc3c(sc4ncnc(Nc5cc6cn[nH]c6cc5Cl)c34)C2)C[C@H](C)O1 [Example 229, {(7S)-4-[(6-Chloro-1H-indazol-5-yl)amino]-5,6,7,8-tetrahydro[1]benzothieno[2,3-d]pyrimidin-7-yl}[(2S,6S)-2,6-dimethylmorpholin-4-yl]methanone] | 4.3 |
| CCN(C)C(=O)[C@@H]1CCc2c(sc3ncnc(Nc4cc5cn[nH]c5cc4OC)c23)C1 [Example 25, (7R)—N-Ethyl-4-[(6-methoxy-1H-indazol-5-yl)amino]-N-methyl-5,6,7,8-tetrahydro[1]benzothieno[2,3-d]pyrimidine-7-carboxamide] | 8.3 |
| C[C@@H]1COCCN1C(=O)[C@H]1CCc2c(sc3ncnc(Nc4cc5cn[nH]c5cc4F)c23)C1 [Example 223, {(7S)-4-[(6-Fluoro-1H-indazol-5-yl)amino]-5,6,7,8-tetrahydro[1]benzothieno[2,3-d]pyrimidin-7-yl}[(3R)-3-methylmorpholin-4-yl]methanone] | 8.4 |
| CCN(OC)C(=O)[C@H]1CCc2c(sc3ncnc(Nc4cc5cn[nH]c5cc4OC)c23)C1 [Example 197, (7S)—N-Ethyl-N-methoxy-4-[(6-methoxy-1H-indazol-5-yl)amino]-5,6,7,8-tetrahydro[1]benzothieno[2,3-d]pyrimidine-7-carboxamide] | 0.1 |
| C[C@H](CN)Oc1cc2[nH]ncc2cc1Nc1ncnc2sc3c(c12)CC[C@H](C(=O)N1CCOC[C@H]1C)C3 [Example 144, {(7S)-4-[(6-{[(2R)-1-Aminopropan-2-yl]oxy}-1H-indazol-5-yl)amino]-5,6,7,8-tetrahydro[1]benzothieno[2,3-d]pyrimidin-7-yl}[(3R)-3-methylmorpholin-4-yl]methanone] | 1 |
| COc1cc2[nH]ncc2cc1Nc1ncnc2sc3c(c12)CC[C@H](C(=O)N(CCN(C)C)Cc1ccncc1)C3 [Example 62, (7S)—N-[2-(Dimethylamino)ethyl]-4-[(6-methoxy-1H-indazol-5-yl)amino]-N-(pyridin-4-ylmethyl)-5,6,7,8-tetrahydro[1]benzothieno[2,3-d]pyrimidine-7-carboxamide] | 0.1 |
| CN(C)C(=O)[C@@H]1CCc2c(sc3ncnc(Nc4ccc5[nH]ncc5c4)c23)C1 [Example 2, (7R)-4-(1H-Indazol-5-ylamino)-N,N-dimethyl-5,6,7,8-tetrahydro[1]benzothieno[2,3-d]pyrimidine-7-carboxamide] | 118 |
| CSc1cc2[nH]ncc2cc1Nc1ncnc2sc3c(c12)CC[C@H](C(=O)N1C[C@@H](C)O[C@H](C)C1)C3 [Example 247, [(2R,6R)-2,6-Dimethylmorpholin-4-yl][(7S)-4-{[6-(methylsulfanyl)-1H-indazol-5-yl]amino}-5,6,7,8-tetrahydro[1]benzothieno[2,3-d]pyrimidin-7-yl]methanone] | 0.6 |
| COc1cc2[nH]ncc2cc1Nc1ncnc2sc3c(c12)CC[C@H](C(=O)N(C)CCN(C)CCN(C)C)C3 [Example 57, (7S)—N-(2-{[2-(Dimethylamino)ethyl](methyl)amino}ethyl)-4-[(6-methoxy-1H-indazol-5-yl)amino]-N-methyl-5,6,7,8-tetrahydro[1]benzothieno[2,3-d]pyrimidine-7-carboxamide] | 0.7 |
| COc1cc2[nH]ncc2cc1Nc1ncnc2sc3c(c12)CC[C@H](C(=O)N(CCN(C)C)Cc1ccccn1)C3 [Example 60, (7S)—N-[2-(Dimethylamino)ethyl]-4-[(6-methoxy-1H-indazol-5-yl)amino]-N-(pyridin-2-ylmethyl)-5,6,7,8-tetrahydro[1]benzothieno[2,3-d]pyrimidine-7-carboxamide] | 0.2 |

The remaining lines, values ahead:

| IC50 [nM] | SMILES |
| --- | --- |
| 39.6 | CN(C)CCN(C)c1cc2[nH]ncc2cc1Nc1ncnc2sc3c(c12)CC[C@H](C(=O)N(C)C)C3 [Example 151, (7S)-4-[(6-{[2-(Dimethylamino)ethyl](methyl)amino}-1H-indazol-5-yl)amino]-N,N-dimethyl-5,6,7,8-tetrahydro[1]benzothieno[2,3-d]pyrimidine-7-carboxamide] |
| 0.4 | CC(C)Oc1cc2[nH]ncc2cc1Nc1ncnc2sc3c(c12)CC[C@H](C(=O)N1CC[C@H](N(C)C)C1)C3 [Example 168, [(3S)-3-(dimethylamino)pyrrolidin-1-yl][(7S)-4-{[6-(propan-2-yloxy)-1H-indazol-5-yl]amino}-5,6,7,8-tetrahydro[1]benzothieno[2,3-d]pyrimidin-7-yl]methanone] |
| 17.5 | CN(C)C1CCN(c2cc3[nH]ncc3cc2Nc2ncnc3sc4c(c23)CC[C@H](C(=O)N2C[C@@H]3C[C@H]2CO3)C4)CC1 [Example 153, [(7S)-4-({6-[4-(Dimethylamino)piperidin-1-yl]-1H-indazol-5-yl}amino)-5,6,7,8-tetrahydro[1]benzothieno[2,3-d]pyrimidin-7-yl][(1S,4S)-2-oxa-5-azabicyclo[2.2.1]hept-5-yl]methanone] |
| 0.1 | COc1cc2[nH]ncc2cc1Nc1ncnc2sc3c(c12)CC[C@H](C(=O)N1CCN(CCN(C)C)CC1)C3 [Example 50, {4-[2-(Dimethylamino)ethyl]piperazin-1-yl}{(7S)-4-[(6-methoxy-1H-indazol-5-yl)amino]-5,6,7,8-tetrahydro[1]benzothieno[2,3-d]pyrimidin-7-yl}methanone] |
| 0.3 | C[C@H]1COCCN1C(=O)[C@H]1CCc2c(sc3ncnc(Nc4cc5cn[nH]c5cc4OC4CN(C(=O)OC(C)(C)C)C4)c23)C1 [Example 267, tert-Butyl 3-[(5-{[(7S)-7-{[(3S)-3-methylmorpholin-4-yl]carbonyl}-5,6,7,8-tetrahydro[1]benzothieno[2,3-d]pyrimidin-4-yl]amino}-1H-indazol-6-yl)oxy]azetidine-1-carboxylate] |
| 1 | COc1cc2[nH]ncc2cc1Nc1ncnc2sc3c(c12)CC[C@H](C(=O)N(C)CCC(C)(C)O)C3 [Example 215, (7S)—N-(3-Hydroxy-3-methylbutyl)-4-[(6-methoxy-1H-indazol-5-yl)amino]-N-methyl-5,6,7,8-tetrahydro[1]benzothieno[2,3-d]pyrimidine-7-carboxamide] |
| 1.9 | COCCN(C)C(=O)[C@H]1CCc2c(sc3ncnc(Nc4cc5cn[nH]c5cc4SC)c23)C1 [Example 253, (7S)—N-(2-Methoxyethyl)-N-methyl-4-{[6-(methylsulfanyl)-1H-indazol-5-yl]amino}-5,6,7,8-tetrahydro[1]benzothieno[2,3-d]pyrimidine-7-carboxamide] |
| 0.4 | COc1cc2[nH]ncc2cc1Nc1ncnc2sc3c(c12)CC[C@H](C(=O)N(C)CCn1ccnc1)C3 [Example 171, (7S)—N-[2-(1H-Imidazol-1-yl)ethyl]-4-[(6-methoxy-1H-indazol-5-yl)amino]-N-methyl-5,6,7,8-tetrahydro[1]benzothieno[2,3-d]pyrimidine-7-carboxamide] |
| 1 | CN(C)C(=O)[C@H]1CCc2c(sc3ncnc(Nc4cc5cn[nH]c5cc4OC4CCCCC4)c23)C1 [Example 202, (7S)-4-{[6-(Cyclohexyloxy)-1H-indazol-5-yl]amino}-N,N-dimethyl-5,6,7,8-tetrahydro[1]benzothieno[2,3-d]pyrimidine-7-carboxamide] |
| 5.2 | C[C@@H](N)COc1cc2[nH]ncc2cc1Nc1ncnc2sc3c(c12)CC[C@H](C(=O)N1CCOC[C@@H]1C)C3 [Example 149, {(7S)-4-[(6-{[(2R)-2-Aminopropyl]oxy}-1H-indazol-5-yl)amino]-5,6,7,8-tetrahydro[1]benzothieno[2,3-d]pyrimidin-7-yl}[(3S)-3-methylmorpholin-4-yl]methanone] |
| 0.1 | COc1cc2[nH]ncc2cc1Nc1ncnc2sc3c(c12)CC[C@H](C(=O)N1CCN(C(=O)N(C)C)CC1)C3 [Example 49, 4-({(7S)-4-[(6-Methoxy-1H-indazol-5-yl)amino]-5,6,7,8-tetrahydro[1]benzothieno[2,3-d]pyrimidin-7-yl}carbonyl)-N,N-dimethylpiperazine-1-carboxamide] |
| 71.5 | C[C@@H]1COCCN1C(=O)[C@H]1CCc2c(sc3ncnc(Nc4cc5cn[nH]c5cc4OCCN4CCCC4)c23)C1 [Example 115, [(3R)-3-Methylmorpholin-4-yl][(7S)-4-({6-[2-(pyrrolidin-1-yl)ethoxy]-1H-indazol-5-yl}amino)-5,6,7,8-tetrahydro[1]benzothieno[2,3-d]pyrimidin-7-yl]methanone] |
| 1.3 | CCC(=O)NCCOc1cc2[nH]ncc2cc1Nc1ncnc2sc3c(c12)CC[C@H](C(=O)N(C)C)C3 [Example 269, (7S)—N,N-Dimethyl-4-({6-[2-(propanoylamino)ethoxy]-1H-indazol-5-yl}amino)-5,6,7,8-tetrahydro[1]benzothieno[2,3-d]pyrimidine-7-carboxamide] |
| 6.5 | CC(C)N(C(=O)[C@H]1CCc2c(sc3ncnc(Nc4ccc5[nH]ncc5c4)c23)C1)C(C)C [Example 127, (7S)-4-(1H-Indazol-5-ylamino)-N,N-di(propan-2-yl)-5,6,7,8-tetrahydro[1]benzothieno[2,3-d]pyrimidine-7-carboxamide] |
| 8.9 | COCCN(CCO)C(=O)[C@@H]1CCc2c(sc3ncnc(Nc4cc5cn[nH]c5cc4OC)c23)C1 [Example 43, (7R)—N-(2-Hydroxyethyl)-N-(2-methoxyethyl)-4-[(6-methoxy-1H-indazol-5-yl)amino]-5,6,7,8-tetrahydro[1]benzothieno[2,3-d]pyrimidine-7-carboxamide] |
| 0.5 | COc1cc2[nH]ncc2cc1Nc1ncnc2sc3c(c12)CC[C@H](C(=O)N(C)S(C)(=O)=O)C3 [Example 216, (7S)-4-[(6-Methoxy-1H-indazol-5-yl)amino]-N-methyl-N-(methylsulfonyl)-5,6,7,8-tetrahydro[1]benzothieno[2,3-d]pyrimidine-7-carboxamide] |
